Entries after “also recorded” stand apart in the source; their conditions may differ.
What was measured:
[1] = test system: C-terminal domain (CTD) of RNA polymerase II, serine 2 and serine 5; assay: Immunoblotting: phosphorylation of the C-terminal domain of RNA polymerase II; assay type: cell-based
Experimental: Cell were detached with rubber policeman and washed three times with ice-cold PBS and lysed in buffer (50 mM Tris, pH 7.4, 250 mM NaCl, 5 mM EDTA, 50 mM NaF, 1 mM Na3VO4, 1% Nonidet P40) containing mixture of protease and phosphatase inhibitors (Sigma-Aldrich St Louis, Mo., USA). 20 μg of total proteins were separated by SDS-polyacrylamide gel electrophoresis (SDS-PAGE) on 8% or 10% gels and transferred onto nitrocellulose membranes. Membranes were blocked in 5% milk and 0.1% Tween 20 in PBS and probed overnight with specific monoclonal antibodies or rabbit polyclonal sera. Primary antibodies specific for RNA polymerase II (all from Santa Cruz Biotechnology, California, USA) included: (i) N-20 used at 1 μg/ml, (ii) H14, specific for form phosphorylated at phosphoserine 5, used at 6 μg/ml and (iii) H5, specific for form phosphorylated at phosphoserine 2 used at 4 μg/ml. Additional primary mAb used in immunblots included (iv) anti-p53 (DO-1, in house) used at 1 μg/ml, (v) anti-p21^WAF1 (118, in house), used at 1 μg/ml), (vi) anti-actin (A-2066, Sigma-Aldrich St Louis, Mo., USA) used at 1 μg/ml, (vii) anti-T-antigen (419, in house), used at 1 μg/ml. All primary antibodies were diluted in PBS containing 5% powdered milk; 0.1% Tween 20. Peroxidase conjugated rabbit anti-mouse immunoglobulin or porcine anti-rabbit immunoglobulin antisera (DAKO, Glostrup, Denmark) were used as the secondary antibodies and visualised with ECL reagents (Amersham-Pharmacia, Little Chalfont, UK).
Modulation of expression from the HIV promoter by CDKI treatment may be mediated by transcriptional regulation. At the C-terminus of the largest subunit of RNA Pol II is an important regulatory domain referred to as CTD (C-terminal domain). We therefore investigated the effect of CDKIs on CTD serine 2 and serine 5 phosphorylation. […] Although the functions of CDKs and RNA polymerase II were suppressed, the expression from incorporated viral promoters was enhanced.
Cell were detached with rubber policeman and washed three times with ice-cold PBS and lysed in buffer (50 mM Tris, pH 7.4, 250 mM NaCl, 5 mM EDTA, 50 mM NaF, 1 mM Na3VO4, 1% Nonidet P40) containing mixture of protease and phosphatase inhibitors (Sigma-Aldrich St Louis, Mo., USA). 20 μg of total proteins were separated by SDS-polyacrylamide gel electrophoresis (SDS-PAGE) on 8% or 10% gels and transferred onto nitrocellulose membranes. Membranes were blocked in 5% milk and 0.1% Tween 20 in PBS and probed overnight with specific monoclonal antibodies or rabbit polyclonal sera. […]

[2] = test system: p53 protein in osteosarcoma cell line HOS (mut p53); assay: p53 protein expression in HOS cells (immunoblotting); assay type: cell-based, human; conditions: HOS (mutant p53), 5 μM, 6, 12 and 24 hrs
Experimental: (a) DO-1, DO-2 and 1801 monoclonal antibodies recognise the N-terminal region of p53 protein, monoclonal antibodies DO-11 and DO-12 recognise different epitopes in the core domain of p53 protein, monoclonal antibodies Bp53-10 and Pab421 recognise the C-terminal region of p53 protein. (b) Monoclonal antibody 118 recognises p21^WAF1.
For direct immunoblotting, total cellular protein lysates were prepared by harvesting cells in hot Laemmli electrophoresis sample buffer. Proteins were then separated by SDS-polyacrylamide gel electrophoresis (SDS-PAGE) on 10% gel and transferred onto a nitrocellulose membrane in Bio.Rad Mini Trans-Blott Electrophoretic Transfer Cell for 2 hrs at 4° C. applying 150 mA in transfer buffer ([…], 190 mM glycine and 20% methanol). Prestained molecular weight markers (Bio-Rad) were run in parallel. […]
First, we determined appropriate concentration of 103 and 105 for our experiments. The MCF-7 (wt p53) cells were treated for 12 hrs with increasing concentrations of 105 ranging from 1 to 100 μM and analysed for p53 protein expression using monoclonal antibody DO-1 (FIG. 3A). […] We analysed the expression of p53 protein in MCF-7 (wt p53), BT549 (mut p53) and BT474 (mut p53) breast cancer cell lines, in HT29 (mut p53) colorectal cancer cell line and in ostaosarcoma cell line HOS (mut p53). […]

HAd4 = assay: Plaque number reduction assay, HAd4 on A549; assay type: cell-based, Human adenovirus type 4 (HAdV-4) strain RI-6
IV = assay type: cell-based, Influenza Virus H1N1 strain A/PR/8/34; conditions: MDCK cells
[3] = test system: human osteogenic sarcoma HOS; assay: In vitro cytotoxic activity (Calcein AM, 72 hours), HOS; conditions: read-out: Cytotoxicity IC50 HOS

SMILES: CCC(CO)Nc1nc(NCc2ccccc2N)c2ncn(C(C)C)c2n1 (stereo not shown) [Compound 105, 2-({6-[(2-aminobenzyl)amino]-9-isopropyl-9H-purin-2-yl}amino)butan-1-ol]
- phosphorylation of both serine 2 and serine 5 of RNA polymerase II CTD ([1]; 12 hours treatment, cell lines with incorporated SV40, all tested cell lines (FIG. 12A)): inhibited
- levels of serine 2 and serine 5 phosphorylation of RNA polymerase II CTD ([1]; COS-1, CV-1 and MCF-7 cells): substantially reduced
- phosphorylation of CTD of RNA polymerase II ([1]; MCF7 cells treated for 24 h, immunoblot (FIG. 2)): reduced phosphorylation
- induction of p53 [2]: No induction
- inhibition of virus replication (in words) (HAd4): inhibited HAd4 replication; also recorded: profound effect
- inhibition of virus replication (in words) (IV): ineffective
- IC50 [3]: 11 µM
